Tests used:
[1] = test system: Pseudomonas aeruginosa (ATCC#15442, ATCC#10145), Enterobacter aerogenes, Escherichia coli, Klebsiella pneumoniae, Staphylococcus aureus, Salmonella …; experiment: Preservative efficacy (multi-challenge, 96-deep well) in spinning finish emulsion; assay type: cell-based; details: Day 27, post 4th microbial challenge; ppm active
[2] = test system: Pseudomonas aeruginosa (ATCC#15442, ATCC#10145), Enterobacter aerogenes, Escherichia coli, Klebsiella pneumoniae, Staphylococcus aureus, Salmonella …; experiment: Preservative efficacy (multi-challenge, 96-deep well) in water-based latex paint, pH 7.4; assay type: cell-based
[3] = Day 15, after four bacterial challenges, ppm active
[4] = Day 20, after four bacterial challenges, ppm active

Structure (SMILES): ClC=CC[N+]12CN3CN(CN(C3)C1)C2.[Cl-] [CTAC]
- CTAC alone (ppm), concentration necessary for ≧6 log10 microbial kill [1]: 582 ppm

Structure (SMILES): CC1(C)COCN1 [DMO, 4,4-Dimethyloxazolidine]
- DMO alone (ppm), concentration required for ≧4 log10 microbial kill [2, 3]: 308 ppm
- log10 viable microorganisms, DMO alone score ([2]; Day 15, DMO 91 ppm): 8 log10
- log10 viable microorganisms, DMO alone score ([2]; Day 15, DMO 137 ppm): 7 log10
- log10 viable microorganisms, DMO alone score ([2]; Day 15, DMO 205 ppm): 6 log10
- log10 viable microorganisms, DMO alone score ([2]; Day 15, DMO 308 ppm): 0 log10
- log10 viable microorganisms, DMO alone score ([2]; Day 15, DMO 463 ppm): 0 log10
- log10 viable microorganisms, DMO alone score ([2]; Day 15, DMO 693 ppm): 0 log10
- log10 viable microorganisms, DMO alone score ([2]; Day 15, DMO 1040 ppm): 0 log10
- log10 viable microorganisms, DMO alone score ([2]; Day 15, DMO 1560 ppm): 0 log10
- DMO alone (ppm), concentration necessary for ≧6 log10 microbial kill [1]: 355 ppm

Structure (SMILES): CC(=O)OC1CC(C)OC(C)O1 (stereo not shown) [DMX, 2,6-Dimethyl-m-dioxan-4-ol acetate]
- DMX alone (ppm), concentration required for ≧4 log10 microbial kill [2, 3]: 1740 ppm
- log10 viable microorganisms, DMX alone ([2]; Day 15, DMX 102 ppm): 7 log10
- log10 viable microorganisms, DMX alone ([2]; Day 15, DMX 153 ppm): 7 log10
- log10 viable microorganisms, DMX alone ([2]; Day 15, DMX 229 ppm): 8 log10
- log10 viable microorganisms, DMX alone ([2]; Day 15, DMX 344 ppm): 8 log10
- log10 viable microorganisms, DMX alone ([2]; Day 15, DMX 516 ppm): 7 log10
- log10 viable microorganisms, DMX alone ([2]; Day 15, DMX 773 ppm): 8 log10
- log10 viable microorganisms, DMX alone ([2]; Day 15, DMX 1160 ppm): 5 log10
- log10 viable microorganisms, DMX alone ([2]; Day 15, DMX 1740 ppm): 0 log10
- DMX alone (ppm), concentration required for ≧4 log10 microbial kill [2, 4]: 1740 ppm
- log10 viable microorganisms, DMX alone ([2]; Day 20, DMX 102 ppm): 8 log10
- log10 viable microorganisms, DMX alone ([2]; Day 20, DMX 153 ppm): 8 log10
- log10 viable microorganisms, DMX alone ([2]; Day 20, DMX 229 ppm): 8 log10
- log10 viable microorganisms, DMX alone ([2]; Day 20, DMX 344 ppm): 8 log10
- log10 viable microorganisms, DMX alone ([2]; Day 20, DMX 516 ppm): 8 log10
- log10 viable microorganisms, DMX alone ([2]; Day 20, DMX 773 ppm): 8 log10
- log10 viable microorganisms, DMX alone ([2]; Day 20, DMX 1160 ppm): 8 log10
- log10 viable microorganisms, DMX alone ([2]; Day 20, DMX 1740 ppm): 4 log10
- DMX alone (ppm), concentration necessary for ≧6 log10 microbial kill [1]: 1339 ppm

Structure (SMILES): CCC12COCN1COC2 [EBCO, 7-Ethyl-bicyclooxazolidine]
- EBCO alone (ppm), concentration required for ≧4 log10 microbial kill [2, 4]: 1920 ppm
- log10 viable microorganisms, EBCO alone score ([2]; Day 20, EBCO 112 ppm): 8 log10
- log10 viable microorganisms, EBCO alone score ([2]; Day 20, EBCO 169 ppm): 8 log10
- log10 viable microorganisms, EBCO alone score ([2]; Day 20, EBCO 252 ppm): 8 log10
- log10 viable microorganisms, EBCO alone score ([2]; Day 20, EBCO 379 ppm): 7 log10
- log10 viable microorganisms, EBCO alone score ([2]; Day 20, EBCO 569 ppm): 7 log10
- log10 viable microorganisms, EBCO alone score ([2]; Day 20, EBCO 853 ppm): 8 log10
- log10 viable microorganisms, EBCO alone score ([2]; Day 20, EBCO 1280 ppm): 7 log10
- log10 viable microorganisms, EBCO alone score ([2]; Day 20, EBCO 1920 ppm): 0 log10

Structure (SMILES): O=[N+]([O-])C(CO)(CO)CO [TN, 2-Hydroxymethyl-2-nitro-1,3-propanediol]
- TN alone (ppm), concentration necessary for ≧6 log10 microbial kill [1]: 592 ppm
